Converted amounts (≈) assume the structure as drawn.

Data set [1] can be described thus: Cytotoxicity against mouse Peritoneal macrophages assessed as reduction in cell viability incubated for 24 hrs by MTT assay. Type of data set: toxicity, cell-based, Peritoneal macrophage.
Data set [2] deals with Leishmania donovani. The data set can be described thus: Antileishmanial activity against Leishmania donovani promastigotes assessed as reduction in parasitic growth by MTT assay. In kind it is functional, organism-based. (In general: Tetrazolium assays rely on reduction of a dye to a coloured formazan, in cell work by metabolically active cells.)
Data set [3] deals with Leishmania braziliensis. As to the kind of experiment: Antileishmanial activity against Leishmania braziliensis MHOM/Br/75/M2903 promastigotes assessed as reduction in parasite growth incubated for 72 hrs by MTT assay. Type of data set: functional, organism-based. Particulars: MHOM/Br/75/M2903, 72 h.
In data set [4] the test system is Leishmania braziliensis. As to the kind of experiment: Antileishmanial activity against Leishmania braziliensis MHOM/Br/75/M2903 amastigotes assessed as reduction in parasite growth incubated for 72 hrs by MTT assay. In kind it is functional, organism-based. Particulars: MHOM/Br/75/M2903, 72 h.
Data set [5] deals with Leishmania donovani. As to the kind of experiment: Antileishmanial activity against Leishmania donovani promastigotes assessed as reduction in parasite growth incubated for 48 hrs by MTT assay. In kind it is functional, organism-based.
In data set [6] the test system is Leishmania amazonensis. The data set can be described thus: Antileishmanial activity against Leishmania amazonensis intracellular amastigotes assessed as parasite growth inhibition at 109 uM incubated for 96 hrs relative to control. Type of data set: functional. More on the design: scale not given: the % may be the effect or the level left.
Data set [7] in a line: Inhibition of recombinant Leishmania mexicana Trypanothione reductase.
In data set [8] the test system is Leishmania amazonensis. The data set can be described thus: Antileishmanial activity against axenic amastigote form of patient derived Leishmania amazonensis MHOM/BR/77/LTB001 assessed as parasite growth inhibition incubated for 24 hrs. Type of data set: functional, organism-based. Particulars: MHOM/BR/77/LTB001, 24 h.
For data set [9], the system named is Leishmania amazonensis. As to the kind of experiment: Antileishmanial activity against Leishmania amazonensis promastigotes assessed as parasite growth inhibition incubated for 24 hrs. In kind it is functional, organism-based.
The subject of the next data set is Leishmania tropica. As to the kind of experiment: Antileishmanial activity against Leishmania tropica promastigote assessed as inhibition of parasite growth incubated for 72 hrs by MTT assay. Type of data set: functional, organism-based.
Data set [10] in a line: Inhibition of Leishmania infantum Trypanothione reductase expressed in Escherichia coli BL21 (DE3) using trypanothione as substrate preincubated for 3 mins followed NADPH addition by Dixon plot analysis.
Data set [11] has as its system Leishmania infantum. The data set can be described thus: Antiprotozoal activity against Leishmania infantum intracellular amastigotes infected in human THP-1 derived macrophage cells assessed as reduction in parasite viability measured for 72 hrs by resazurin/alamar blue fluorometric assay. Type of data set: functional, organism-based. The conditions noted are these: THP-1, 72 h. (The colour change of resazurin is a common sign of viable cells or microbes.)

Data set [12] has as its system Leishmania infantum. The data set can be described thus: Antileishmanial activity against Leishmania infantum promastigotes assessed as reduction in cell viability incubated for 24 hrs by propidium iodide staining based flow cytometry assay. In kind it is functional, organism-based. (In general: Flow cytometry measures light scatter and fluorescence of single cells or particles in a stream.)

A further data set has as its system Leishmania major. The data set can be described thus: Antileishmanial activity against Leishmania major amastigotes assessed as reduction in parasite growth incubated for 72 hrs by MTS assay. Type of data set: functional, organism-based.
In data set [13] the test system is Leishmania donovani. The data set can be described thus: Antileishmanial activity against Leishmania donovani amastigotes assessed as parasite growth inhibition incubated for 72 hrs by MTS assay. In kind it is functional, organism-based.
The target in another data set is Trypanothione reductase (Leishmania donovani, UniProt P39050). As to the kind of experiment: Inhibition of Leishmania donovani Trypanothione reductase.
Chain of Trypanothione reductase (P39050 whole entry): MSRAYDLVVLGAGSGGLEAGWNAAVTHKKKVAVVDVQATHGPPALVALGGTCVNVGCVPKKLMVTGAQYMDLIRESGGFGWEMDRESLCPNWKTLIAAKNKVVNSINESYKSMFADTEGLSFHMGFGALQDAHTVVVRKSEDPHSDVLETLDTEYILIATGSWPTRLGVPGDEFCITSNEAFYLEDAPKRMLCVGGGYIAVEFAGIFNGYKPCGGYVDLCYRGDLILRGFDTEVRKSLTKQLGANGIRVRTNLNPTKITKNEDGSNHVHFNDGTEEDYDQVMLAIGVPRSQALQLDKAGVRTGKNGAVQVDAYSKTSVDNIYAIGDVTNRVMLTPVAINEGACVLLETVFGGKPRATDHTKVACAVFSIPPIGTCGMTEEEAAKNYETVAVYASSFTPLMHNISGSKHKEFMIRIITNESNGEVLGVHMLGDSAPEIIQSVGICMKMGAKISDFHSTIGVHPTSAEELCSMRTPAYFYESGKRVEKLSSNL

What is called IC50 is the concentration needed to halve the response being measured. As for `CC/C=C\C/C=C\CCC/C=C/C=C/C=C\CCCC(=O)O`, the IC50 at 24 h in [1] worked out at 2 µM.
As for `COC(=O)c1ccc(C2OC(C)(C)C3CC(=O)C(C)C2C3)cc1` (stereo unspecified), the half-maximal inhibitory concentration (IC50) in the data set with Leishmania donovani [2] worked out at 4.9 µM.
Take `Oc1ccc(/C=N\Nc2ccccc2)c(O)c1`: the IC50 came out at 7.3 µM with Leishmania braziliensis [3] and 21.7 µM in the data set with Leishmania braziliensis [4].
On to `CC[C@H](CC[C@@H](C)[C@H]1CC[C@H]2[C@@H]3CC=C4C[C@@H](O)CC[C@]4(C)[C@H]3CC[C@]12C)C(C)C` [BETA-SITOSTEROL], for which, in the data set on Leishmania donovani [5], the IC50 turned out to be 17.7 µg/mL (≈ 42.7 µM).
As for `C=C(C)[C@@H]1CC[C@@]2(C)[C@H]1[C@H]1CC[C@@H]3[C@@]4(C)CC[C@H](O)C(C)(C)[C@@H]4[C@H](O)C[C@@]3(C)[C@]1(C)C[C@@H]2O`, the Activity in the data set on Leishmania amazonensis [6] is given as 80%.
`O=C(NCc1ccc2ncccc2c1)c1cnn(-c2ncc3c(n2)-c2ccccc2CCC3)c1C1CC1`: in data set [7], the half-maximal inhibitory concentration (IC50) was found to be 58 µM.
Turning to `CC1=CC(=O)C[C@H]2[C@H]1CC[C@@H](C)C21C[C@H](c2ccoc2)OC1=O` (stereo partly specified), the IC50 in the data set on Leishmania amazonensis [8] amounted to 20 µg/mL (≈ 63.6 µM); in the data set on Leishmania amazonensis [9] it was 6.3 µg/mL (≈ 20 µM).
In the case of `C[C@@H]1O[C@@H](OC[C@H]2O[C@@H](Oc3c(-c4ccc(O)c(O)c4)oc4cc(O)cc(O)c4c3=O)[C@H](O)[C@@H](O)[C@@H]2O)[C@H](O)[C@H](O)[C@H]1O` [RUTIN], in the data set with Leishmania tropica, the IC50 was determined as 91.2 µg/mL (≈ 149 µM).
In data set [10], `Cc1cc(NC(=O)c2ccc([N+](=O)[O-])s2)ccc1Br` registered an IC50 of 0.19 µM.
Regarding `CC[C@@]1(O)C(=O)OCc2c1cc1n(c2=O)Cc2c-1nc1ccccc1c2/C=N/OC(C)(C)C` [GIMATECAN], the IC50 in the data set with Leishmania infantum [11] is 0.1 µM; in the data set with Leishmania infantum [12], 1.73 µM.
Regarding `C/C=C(\CC[C@@H](C)[C@H]1CC[C@H]2[C@@H]3CC=C4C[C@@H](O)CC[C@]4(C)[C@H]3CC[C@]12C)C(C)C` [FUCOSTEROL], the 50% inhibitory concentration (IC50) turned out to be 19 µg/mL (≈ 46 µM) in the data set on Leishmania major and 18.5 µg/mL (≈ 44.8 µM) in the data set with Leishmania donovani [13].
Regarding `O[C@H](CC1c2ccccc2-c2ccccc21)CN1CCN(C[C@H](O)C[C@@H]2c3ccc(Br)cc3-c3cc(Br)cc(Br)c32)CC1`, the half-maximal inhibitory concentration (IC50) against Trypanothione reductase was 98.4 µM.

The values are drawn from ChEMBL document CHEMBL5620368, “Molecular-level strategic goals and repressors in Leishmaniasis - Integrated data to accelerate target-based heterocyclic scaffolds” (Eur J Med Chem, 2023).
